Measured values reported in PubChem BioAssay (NCI).
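Cells were grown in 96-well plates and exposed to each compound for 48 hours at five concentrations; endpoints were interpolated linearly between bracketing concentrations, or set to the highest concentration if not reached. TGI: concentration producing complete growth inhibition.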

Experiments:
Experiment in all cases: DTP human tumour cell line panel, 48 h
ACHN renal = test system: ACHN renal
NCI/ADR-RES ovarian = test system: NCI/ADR-RES ovarian
SK-OV-3 ovarian = test system: SK-OV-3 ovarian
OVCAR-8 ovarian = test system: OVCAR-8 ovarian
NCI-H23 lung = test system: NCI-H23 lung
A549 NSCLC = test system: A549 NSCLC
BT-549 breast = test system: BT-549 breast
HL-60(TB) leukemia = test system: HL-60(TB) leukemia
HCT-15 colon = test system: HCT-15 colon
MDA-MB-435 = test system: MDA-MB-435
PC-3 prostate = test system: PC-3 prostate
SF-268 CNS = test system: SF-268 CNS
MALME-3M melanoma = test system: MALME-3M melanoma
SN12C renal = test system: SN12C renal
M14 melanoma = test system: M14 melanoma
OVCAR-3 ovarian = test system: OVCAR-3 ovarian
SF-539 CNS = test system: SF-539 CNS
DU-145 prostate = test system: DU-145 prostate
T-47D breast = test system: T-47D breast
NCI-H460 lung = test system: NCI-H460 lung
MDA-MB-231 breast = test system: MDA-MB-231 breast
HOP-92 NSCLC = test system: HOP-92 NSCLC
U251 CNS = test system: U251 CNS
KM12 colon = test system: KM12 colon
UACC-62 melanoma = test system: UACC-62 melanoma
SW-620 colon = test system: SW-620 colon
HCC-2998 colon = test system: HCC-2998 colon
SNB-75 CNS = test system: SNB-75 CNS
HOP-62 NSCLC = test system: HOP-62 NSCLC
OVCAR-5 ovarian = test system: OVCAR-5 ovarian
COLO 205 colon = test system: COLO 205 colon
LOX IMVI melanoma = test system: LOX IMVI melanoma
RXF 393 renal = test system: RXF 393 renal
HT29 colon = test system: HT29 colon
EKVX NSCLC = test system: EKVX NSCLC
CAKI-1 renal = test system: CAKI-1 renal
NCI-H522 lung = test system: NCI-H522 lung
IGROV1 ovarian = test system: IGROV1 ovarian
MDA-N = test system: MDA-N
SNB-19 CNS = test system: SNB-19 CNS
RPMI-8226 leukemia = test system: RPMI-8226 leukemia
HS 578T breast = test system: HS 578T breast
NCI-H226 lung = test system: NCI-H226 lung
SK-MEL-28 melanoma = test system: SK-MEL-28 melanoma
HCT-116 colon = test system: HCT-116 colon
UACC-257 melanoma = test system: UACC-257 melanoma
TK-10 renal = test system: TK-10 renal
SR leukemia = test system: SR leukemia
786-0 renal = test system: 786-0 renal
SF-295 CNS = test system: SF-295 CNS
UO-31 renal = test system: UO-31 renal
A498 renal = test system: A498 renal

O=c1oc2c/c(=C\c3ccccc3)c(=O)c3cccc1c3-2
TGI (ACHN renal): > 100 µM
TGI (NCI/ADR-RES ovarian): > 100 µM
TGI (SK-OV-3 ovarian): > 100 µM
TGI (OVCAR-8 ovarian): 43.1 µM
TGI (NCI-H23 lung): > 100 µM
TGI (A549 NSCLC): > 100 µM
TGI (BT-549 breast): 51.6 µM
TGI (HL-60(TB) leukemia): 71.1 µM
TGI (HCT-15 colon): > 100 µM
TGI (MDA-MB-435): 51.7 µM
TGI (PC-3 prostate): > 100 µM
TGI (SF-268 CNS): 58.7 µM
TGI (MALME-3M melanoma): 52.7 µM
TGI (SN12C renal): > 100 µM
TGI (M14 melanoma): 48.6 µM
TGI (OVCAR-3 ovarian): 63 µM
TGI (SF-539 CNS): 67.1 µM
TGI (DU-145 prostate): > 100 µM
TGI (T-47D breast): 55.5 µM
TGI (NCI-H460 lung): > 100 µM
TGI (MDA-MB-231 breast): 69.2 µM
TGI (HOP-92 NSCLC): 41.6 µM
TGI (U251 CNS): 37.2 µM
TGI (KM12 colon): 56.3 µM
TGI (UACC-62 melanoma): 59.9 µM
TGI (SW-620 colon): 57.1 µM
TGI (HCC-2998 colon): > 100 µM
TGI (SNB-75 CNS): > 100 µM
TGI (HOP-62 NSCLC): 44.1 µM
TGI (OVCAR-5 ovarian): > 100 µM
TGI (COLO 205 colon): > 100 µM
TGI (LOX IMVI melanoma): 40.7 µM
TGI (RXF 393 renal): 72.6 µM
TGI (HT29 colon): > 100 µM
TGI (EKVX NSCLC): > 100 µM
TGI (CAKI-1 renal): 55.8 µM
TGI (NCI-H522 lung): 45.1 µM
TGI (IGROV1 ovarian): 56.7 µM
TGI (MDA-N): 46.1 µM
TGI (SNB-19 CNS): 67.9 µM
TGI (RPMI-8226 leukemia): 88.1 µM
TGI (HS 578T breast): 73.2 µM
TGI (NCI-H226 lung): 75.3 µM
TGI (SK-MEL-28 melanoma): > 100 µM
TGI (HCT-116 colon): 71.2 µM
TGI (UACC-257 melanoma): > 100 µM
TGI (TK-10 renal): > 100 µM
TGI (SR leukemia): > 100 µM
TGI (786-0 renal): 53.9 µM
TGI (SF-295 CNS): > 100 µM
TGI (UO-31 renal): 85.5 µM
TGI (A498 renal): > 100 µM
